From the NIST ThermoML archive (doi:10.1021/je501106d)
Numbers after ± are expanded uncertainties.

Conditions: for speed of sound: Brillouin scattering; for vapor or sublimation pressure: Closed cell (Static) method

CCCCCC [hexane]
speed of sound [m/s], Liquid
Conditions	1000 kPa	2500 kPa	4000 kPa	5500 kPa	7000 kPa	7500 kPa	8500 kPa
300.15 K	1080 ± 35	1090 ± 35	1102 ± 35	1115 ± 36	1129 ± 36	–	1140 ± 37
313.15 K	1027 ± 33	1038 ± 33	1049 ± 34	1062 ± 34	1077 ± 34	–	1092 ± 35
328.15 K	964.1 ± 31	975.9 ± 31	988.6 ± 32	1002 ± 32	1017 ± 33	–	1032 ± 33
343.15 K	900.3 ± 29	913.8 ± 29	927.8 ± 30	942.3 ± 30	957.3 ± 31	–	972.8 ± 31
353.15 K	857 ± 27	872 ± 28	887.1 ± 28	902.5 ± 29	918.1 ± 29	–	934 ± 30
363.15 K	813.22 ± 26	829.9 ± 27	846.4 ± 27	862.9 ± 28	879.3 ± 28	–	895.7 ± 29
373.15 K	768.8 ± 25	787.4 ± 25	805.6 ± 26	823.4 ± 26	840.9 ± 27	–	857.9 ± 28
383.15 K	723.8 ± 23	744.7 ± 24	764.8 ± 24	784.1 ± 25	802.8 ± 26	–	820.7 ± 26
393.15 K	678.3 ± 22	701.6 ± 22	723.8 ± 23	744.9 ± 24	765 ± 24	–	783.9 ± 25
403.15 K	632.1 ± 20	658.2 ± 21	682.8 ± 22	705.9 ± 23	727.5 ± 23	–	747.7 ± 24
413.15 K	585.4 ± 19	614.5 ± 20	641.7 ± 21	667 ± 21	690.4 ± 22	–	711.9 ± 23
423.15 K	538.1 ± 17	570.5 ± 18	600.6 ± 19	628.3 ± 20	653.7 ± 21	–	676.7 ± 22
433.15 K	490.1 ± 16	526.2 ± 17	559.3 ± 18	589.7 ± 19	–	617.3 ± 20	642 ± 21
443.15 K	–	481.5 ± 16	518 ± 17	551.3 ± 18	581.2 ± 19	–	607.8 ± 20
448.15 K	–	459.1 ± 15	497.4 ± 16	532.1 ± 17	563.3 ± 18	–	590.9 ± 19
453.15 K	–	436.6 ± 14	476.7 ± 15	513 ± 16	545.4 ± 18	–	574.1 ± 18
458.15 K	–	414 ± 13	456 ± 15	493.9 ± 16	527.7 ± 17	–	557.4 ± 18
463.15 K	–	391.3 ± 13	435.2 ± 14	474.8 ± 15	510.1 ± 16	–	540.9 ± 17
468.15 K	–	368.5 ± 12	414.5 ± 13	455.8 ± 15	492.5 ± 16	–	524.5 ± 17
473.15 K	–	345.7 ± 11	393.7 ± 13	436.8 ± 14	475 ± 15	–	508.2 ± 16
478.15 K	–	322.8 ± 10	372.9 ± 12	417.9 ± 14	457.6 ± 15	–	492.1 ± 16
483.15 K	–	–	352.1 ± 11	399 ± 13	440.3 ± 14	–	476.1 ± 15
488.15 K	–	–	331.3 ± 11	380.1 ± 12	–	–	–
493.15 K	–	–	310.5 ± 10	361.3 ± 12	–	–	–
498.15 K	–	–	289.6 ± 9.4	342.5 ± 11	–	–	–
503.15 K	–	–	268.8 ± 8.7	323.7 ± 11	–	–	–
506.15 K	–	–	256.2 ± 8.3	312.5 ± 10	–	–	–

Conditions	speed of sound, Gas [m/s]	speed of sound, Liquid [m/s]	vapor or sublimation pressure, Liquid [kPa]
300.15 K	–	1073 ± 34	14
313.15 K	–	993 ± 32	63 ± 30
328.15 K	–	926.8 ± 30	94 ± 30
343.15 K	–	882.7 ± 28	122 ± 30
353.15 K	–	838.8 ± 27	161 ± 30
363.15 K	–	794.9 ± 26	214 ± 30
373.15 K	–	751 ± 24	260 ± 30
383.15 K	178.6 ± 5.8	707.2 ± 23	331 ± 30
393.15 K	176.6 ± 5.7	663.4 ± 21	413 ± 30
403.15 K	174.3 ± 5.7	619.5 ± 20	512 ± 30
413.15 K	171.6 ± 5.6	575.6 ± 18	627 ± 30
423.15 K	168.3 ± 5.5	531.6 ± 17	762 ± 30
433.15 K	164.2 ± 5.3	487.5 ± 16	924 ± 30
443.15 K	159.4 ± 5.2	443.1 ± 14	1113 ± 30
448.15 K	156.6 ± 5.1	420.7 ± 14	1210 ± 30
453.15 K	153.5 ± 5	398.2 ± 13	1322 ± 30
458.15 K	150.1 ± 4.9	375.6 ± 12	1447 ± 30
463.15 K	146.4 ± 4.8	352.8 ± 11	1563 ± 30
468.15 K	142.2 ± 4.7	329.8 ± 11	1700 ± 30
473.15 K	137.6 ± 4.5	306.4 ± 9.9	1843 ± 30
478.15 K	132.5 ± 4.4	282.6 ± 9.1	1992 ± 30
483.15 K	126.9 ± 4.2	258.2 ± 8.3	2144 ± 30
488.15 K	120.6 ± 4	233 ± 7.5	2313 ± 30
493.15 K	113.4 ± 3.8	206.4 ± 6.7	2491 ± 30
498.15 K	105.3 ± 3.5	177.3 ± 5.8	2677 ± 30
503.15 K	95.91 ± 3.2	142 ± 4.7	2878 ± 30
506.15 K	89.34 ± 3	109.7 ± 3.7	2991 ± 30
